Assay type in all cases: cell-based
The target in test [1] is T1, human GIP receptor (Homo sapiens, UniProt P48546).
T1 sequence (P48546 22-466): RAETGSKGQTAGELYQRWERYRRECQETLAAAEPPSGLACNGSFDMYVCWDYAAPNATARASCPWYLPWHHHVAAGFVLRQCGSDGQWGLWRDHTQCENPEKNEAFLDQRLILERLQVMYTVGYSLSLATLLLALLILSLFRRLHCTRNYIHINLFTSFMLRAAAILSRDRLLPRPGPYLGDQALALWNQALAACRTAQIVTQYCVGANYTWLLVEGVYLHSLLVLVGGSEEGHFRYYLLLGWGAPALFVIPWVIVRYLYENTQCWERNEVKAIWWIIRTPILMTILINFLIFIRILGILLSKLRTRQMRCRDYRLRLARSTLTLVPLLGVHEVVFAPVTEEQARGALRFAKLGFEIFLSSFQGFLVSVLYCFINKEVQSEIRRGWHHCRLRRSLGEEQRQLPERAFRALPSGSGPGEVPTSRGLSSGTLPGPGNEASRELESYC
The test can be described thus: cAMP agonism (CisBio cAMP Dynamic 2 HTRF assay). The following applies: HEK293, read-out: cAMP agonism, % Efficacy, Table 1C, HEK-293 cells. Here is the method:
To test for agonistic properties at the GIP receptor, compounds were diluted and added to cells as described above and incubated for 30 min at 37° C. The resulting increase in intracellular cAMP was determined using the CisBio cAMP Dynamic 2 HTRF Assay Kit as described above.
Background: TR-FRET usually uses a lanthanide donor and a delayed reading to cut background.

Test [2] addresses T1, human GIP receptor. Put plainly: cAMP antagonism (CisBio cAMP Dynamic 2 HTRF assay). More on the design: pCMV-Script vector. The following applies: CisBio, HEK-293 cells; for cAMP antagonism, % inhib / IC50: Table 1C; for IC50: nM (IC50). Here is the method: The in vitro functional activity of compounds towards human GIP receptor can also be determined in HEK-293 cells transiently expressing the receptor. On the day of the assay, cells were resuspended in HBSS buffer (Gibco, 14025-50) supplemented with 20 mM HEPES (Gibco, 15630-106), 0,1% Pluronic F-68 (Gibco, 24040-032) and 0,1% casein (Sigma, C4765), and plated in 384-well plates at a density of 5000 cells/well. The GIP peptide analogues of the present disclosure were diluted in HBSS buffer supplemented with 20 mM HEPES, 0,1% pluronic, 0,1% casein and 500 uM IBMX. […] The resulting decrease in intracellular cAMP was quantitatively determined using the CisBio cAMP Dynamic 2 HTRF Assay Kit. The assay is based on a competition between native cAMP produced by cells and cAMP labeled with the dye d2 for binding to a cryptate labeled antibody. The specific signal (i.e. energy transfer signal) is inversely proportional to the concentration of cAMP in the sample.
The cAMP-d2 conjugate and the antibody anti-cAMP-Cryptate, both diluted in lysis buffer provided in the kit, were added to the cells according to the manufacturer's protocol. The resulting competitive assay was incubated for 60 minutes at room temperature, and the signal was detected by using a PerkinElmer Envision® instrument with excitation at 320 nm and emission at 665 nm and 620 nm. The HTRF ratio (emission at 665 nm/620 nm*10,000) is inversely proportional to the amount of cAMP present and is converted to nM cAMP per well using a cAMP standard curve. The dose-response curves were fitted using the non-linear regression analysis (four-logistic parameter equation) in GraphPad Prism, whereby pIC50 values were estimated.

Test [3] concerns the target T1, human GIP receptor. Put plainly: cAMP accumulation, agonism (DiscoveRx HitHunter cAMP XS assay). Further details: host or cells: COS-7 (transient, calcium phosphate; pCMV-Script vector). The following applies: COS-7, read-out: cAMP agonism, Emax. Here is the method: Transient transfected COS-7 cells expressing the human GIP receptor were seeded in white 96-well plates with a density of 3.5*10^4/well. The day after, the cells were washed twice with Hepes buffered saline (HBS) buffer and incubated with HBS and 1 mM 3-isobutyl-1-methylxanthine (IBMX) for 30 min at 37° C. To test for agonistic properties, ligands were added and incubated for 30 min at 37° C. In order to test for antagonistic properties, the cells were preincubated with the antagonists for 10 min prior to the addition of the agonist and subsequent incubated for 20 additional min. The HitHunter™ cAMP XS assay (DiscoveRx) was carried out according to the manufacturer's instructions.
In order to develop a GIP receptor antagonist with improved antagonistic properties, individual amino acid substitutions were conducted on GIP(3-30)NH2 and in particular at positions: 16, 18, 30 or 3, 16, 18, 30. The obtained peptides were lipidated at position 18 directly or via a linker. Both the agonistic and antagonistic profiles of the compounds were tested in cAMP accumulation experiments done in transiently transfected COS-7 cells expressing the human GIP receptor. To investigate if these mutated analogues still retained their antagonistic properties, their ability to inhibit a GIP-mediated cAMP response corresponding to 50-80% of maximum activation was examined.
On the technique in general: Changes in cAMP serve as a functional read-out for many G protein-coupled receptors.

Where [4] appears, read: cAMP antagonism, agonist GIP1-42 at EC50.

pIC50: −log10 of the molar value. Where a SMILES comes first, the peptide text is derived from it. The star is where a group is joined. C16 diacid = O=C(O)CCCCCCCCCCCCCCC(=O)*

For orientation: IC50 means the concentration at which inhibition is half-maximal. A high value points to a need for much substance. Broadly, the pIC50 is −log10 of the IC50, conventionally taken in molar units. For the molecule `CC[C@H](C)[C@H](NC(=O)[C@H](CO)NC(=O)[C@H](Cc1ccc(O)cc1)NC(=O)[C@H](CC(=O)O)NC(=O)[C@H](CO)NC(=O)[C@@H](NC(=O)[C@H](Cc1ccccc1)NC(=O)[C@@H](NC(=O)CNC(=O)CN)[C@@H](C)O)[C@@H](C)CC)C(=O)N[C@@H](C)C(=O)N[C@@H](CCSC)C(=O)N[C@@H](CC(=O)O)C(=O)N[C@@H](CCCNC(=N)N)C(=O)N[C@H](C(=O)N[C@@H](CCCCNC(=O)CC[C@H](NC(=O)CCCCCCCCCCCCCCC(=O)O)C(=O)O)C(=O)N[C@@H](CCC(N)=O)C(=O)N[C@@H](CCC(N)=O)C(=O)N[C@@H](CC(=O)O)C(=O)N[C@@H](Cc1ccccc1)C(=O)N[C@H](C(=O)N[C@@H](CC(N)=O)C(=O)N[C@@H](Cc1c[nH]c2ccccc12)C(=O)N[C@@H](CC(C)C)C(=O)N[C@@H](CC(C)C)C(=O)N[C@@H](C)C(=O)N[C@@H](CCC(N)=O)C(=O)N[C@@H](CCCNC(=N)N)C(=O)O)C(C)C)[C@@H](C)CC` [AT263] (HELM PEPTIDE1{G.G.T.F.I.S.D.Y.S.I.A.M.D.R.I.K.Q.Q.D.F.V.N.W.L.L.A.Q.R}|PEPTIDE2{[O=C(O)CCCCCCCCCCCCCCC(=O)[*:2]].[gGlu]}$PEPTIDE1,PEPTIDE2,16:R3-2:R2$$$V2.0; N-terminus assumed), the Emax was 0% in test [1] and 8% in test [3]. In addition, the “cAMP antagonism, % inhib” value in test [2] amounted to 69%. In addition, the IC50 in test [2] (setting [4]) was 21 nM. In test [2] (cAMP antagonism, pIC50, Table 1C, agonist GIP1-42 at EC50), this molecule had a negative-log IC50 (pIC50) of 6.70.
In the case of `CC[C@H](C)[C@H](NC(=O)[C@H](CO)NC(=O)[C@H](Cc1ccc(O)cc1)NC(=O)[C@H](CC(=O)O)NC(=O)[C@H](CO)NC(=O)[C@@H](NC(=O)[C@H](Cc1ccccc1)NC(=O)[C@@H](NC(=O)CNC(=O)[C@@H]1CCCN1)[C@@H](C)O)[C@@H](C)CC)C(=O)N[C@@H](C)C(=O)N[C@@H](CCSC)C(=O)N[C@@H](CC(=O)O)C(=O)N[C@@H](CCCNC(=N)N)C(=O)N[C@H](C(=O)N[C@@H](CCCCNC(=O)CCCCCCCCCCCCCCC(=O)O)C(=O)N[C@@H](CCC(N)=O)C(=O)N[C@@H](CCC(N)=O)C(=O)N[C@@H](CC(=O)O)C(=O)N[C@@H](Cc1ccccc1)C(=O)N[C@H](C(=O)N[C@@H](CC(N)=O)C(=O)N[C@@H](Cc1c[nH]c2ccccc12)C(=O)N[C@@H](CC(C)C)C(=O)N[C@@H](CC(C)C)C(=O)N[C@@H](C)C(=O)N[C@@H](CCC(N)=O)C(=O)N[C@@H](CCCNC(=N)N)C(=O)O)C(C)C)[C@@H](C)CC` [AT261] (H-PGTFISDYSIAMDRIK(C16 diacid)QQDFVNWLLAQR-OH; N-terminus assumed), the values for the Emax in test [1] and in test [3] were 0% and 24%, respectively. In test [2], the “cAMP antagonism, % inhib” value amounted to 62%. The molecule further registered a 50% inhibitory concentration (IC50) in test [2] (setting [4]) of 200 nM.
On to `CC[C@H](C)[C@H](NC(=O)[C@H](CO)NC(=O)[C@H](Cc1ccc(O)cc1)NC(=O)[C@H](CC(=O)O)NC(=O)[C@H](CO)NC(=O)[C@@H](NC(=O)[C@H](Cc1ccccc1)NC(=O)[C@@H](NC(=O)CNC(=O)[C@@H]1CCCN1)[C@@H](C)O)[C@@H](C)CC)C(=O)N[C@@H](C)C(=O)N[C@@H](CCSC)C(=O)N[C@@H](CC(=O)O)C(=O)N[C@@H](CCCNC(=N)N)C(=O)N[C@H](C(=O)N[C@@H](CCCCNC(=O)CC[C@H](NC(=O)CCCCCCCCCCCCCCC(=O)O)C(=O)O)C(=O)N[C@@H](CCC(N)=O)C(=O)N[C@@H](CCC(N)=O)C(=O)N[C@@H](CC(=O)O)C(=O)N[C@@H](Cc1ccccc1)C(=O)N[C@H](C(=O)N[C@@H](CC(N)=O)C(=O)N[C@@H](Cc1c[nH]c2ccccc12)C(=O)N[C@@H](CC(C)C)C(=O)N[C@@H](CC(C)C)C(=O)N[C@@H](C)C(=O)N[C@@H](CCC(N)=O)C(=O)N[C@@H](CCCNC(=N)N)C(=O)O)C(C)C)[C@@H](C)CC` [AT267] (HELM PEPTIDE1{P.G.T.F.I.S.D.Y.S.I.A.M.D.R.I.K.Q.Q.D.F.V.N.W.L.L.A.Q.R}|PEPTIDE2{[O=C(O)CCCCCCCCCCCCCCC(=O)[*:2]].[gGlu]}$PEPTIDE1,PEPTIDE2,16:R3-2:R2$$$V2.0; N-terminus assumed), for which the Emax in test [1] is 4%; in test [3], 16%. The “cAMP antagonism, % inhib” value in test [2] is reported as 52%.
Turning to `CC[C@H](C)[C@H](NC(=O)[C@H](CO)NC(=O)[C@H](Cc1ccc(O)cc1)NC(=O)[C@H](CC(=O)O)NC(=O)[C@H](CO)NC(=O)[C@@H](NC(=O)[C@H](Cc1ccccc1)NC(=O)[C@@H](N)[C@@H](C)O)[C@@H](C)CC)C(=O)N[C@@H](C)C(=O)N[C@@H](CC(C)C)C(=O)N[C@@H](CC(=O)O)C(=O)N[C@@H](CCCNC(=N)N)C(=O)N[C@H](C(=O)N[C@@H](CCCCNC(=O)CC[C@H](NC(=O)CCCCCCCCCCCCCCC(=O)O)C(=O)O)C(=O)N[C@@H](CCC(N)=O)C(=O)N[C@@H](CCC(N)=O)C(=O)N[C@@H](CC(=O)O)C(=O)N[C@@H](Cc1ccccc1)C(=O)N[C@H](C(=O)N[C@@H](CC(N)=O)C(=O)N[C@@H](Cc1c[nH]c2ccccc12)C(=O)N[C@@H](CC(C)C)C(=O)N[C@@H](CC(C)C)C(=O)N[C@@H](C)C(=O)N[C@@H](CCC(N)=O)C(=O)N[C@@H](CCCNC(=N)N)C(N)=O)C(C)C)[C@@H](C)CC` [AT233] (HELM PEPTIDE1{T.F.I.S.D.Y.S.I.A.L.D.R.I.K.Q.Q.D.F.V.N.W.L.L.A.Q.R.[am]}|PEPTIDE2{[O=C(O)CCCCCCCCCCCCCCC(=O)[*:2]].[gGlu]}$PEPTIDE1,PEPTIDE2,14:R3-2:R2$$$V2.0; N-terminus assumed), the values for the Emax in test [1] and in test [3] were 0% and 28%, respectively. The “cAMP antagonism, % inhib” value in test [2] is recorded as 70%. In addition, the IC50 in test [2] (setting [4]) amounted to 34.2 nM.
The corresponding values for `CC[C@H](C)[C@H](NC(=O)[C@H](CO)NC(=O)[C@H](Cc1ccc(O)cc1)NC(=O)[C@H](CC(=O)O)NC(=O)[C@H](CO)NC(=O)[C@@H](NC(=O)[C@H](Cc1ccccc1)NC(=O)[C@@H](NC(=O)CNC(=O)[C@@H](N)CO)[C@@H](C)O)[C@@H](C)CC)C(=O)N[C@@H](C)C(=O)N[C@@H](CCSC)C(=O)N[C@@H](CC(=O)O)C(=O)N[C@@H](CCCNC(=N)N)C(=O)N[C@H](C(=O)N[C@@H](CCCCNC(=O)COCCOCCNC(=O)CC[C@H](NC(=O)CCCCCCCCCCCCCCC(=O)O)C(=O)O)C(=O)N[C@@H](CCC(N)=O)C(=O)N[C@@H](CCC(N)=O)C(=O)N[C@@H](CC(=O)O)C(=O)N[C@@H](Cc1ccccc1)C(=O)N[C@H](C(=O)N[C@@H](CC(N)=O)C(=O)N[C@@H](Cc1c[nH]c2ccccc12)C(=O)N[C@@H](CC(C)C)C(=O)N[C@@H](CC(C)C)C(=O)N[C@@H](C)C(=O)N[C@@H](CCC(N)=O)C(=O)N[C@@H](CCCNC(=N)N)C(=O)O)C(C)C)[C@@H](C)CC` [AT271] (HELM PEPTIDE1{S.G.T.F.I.S.D.Y.S.I.A.M.D.R.I.K.Q.Q.D.F.V.N.W.L.L.A.Q.R}|PEPTIDE2{[O=C(O)CCCCCCCCCCCCCCC(=O)[*:2]].[gGlu].[O=C(COCCOCCN[*:1])[*:2]]}$PEPTIDE1,PEPTIDE2,16:R3-3:R2$$$V2.0; N-terminus assumed) are 2%, 9%, 73% and 85.8 nM.

Source of the values: patent publication US12187773B2, “Modified GIP peptide analogues” (Antag Therapeutics ApS, priority 2018, dated 2025).
